Results from PubChem BioAssay (NCI).
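Results reflect a 48-hour exposure of cells in 96-well plates to compound at five concentrations. GI50 marks 50% less growth. At the TGI there is no net growth.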

What was measured:
Assay in all cases: growth of human tumour cells (NCI), 48 h
SK-MEL-5 melanoma = system: SK-MEL-5 melanoma
NCI-H23 lung = system: NCI-H23 lung
EKVX NSCLC = system: EKVX NSCLC
UACC-62 melanoma = system: UACC-62 melanoma
SW-620 colon = system: SW-620 colon
RPMI-8226 leukemia = system: RPMI-8226 leukemia
CCRF-CEM leukemia = system: CCRF-CEM leukemia
BT-549 breast = system: BT-549 breast
A549 NSCLC = system: A549 NSCLC
KM12 colon = system: KM12 colon

C[n+]1ccccc1/C=C/c1ccc2c(c1)OCO2
TGI (SK-MEL-5 melanoma): > 10 µM | TGI (NCI-H23 lung): > 10 µM | TGI (EKVX NSCLC): > 10 µM | TGI (UACC-62 melanoma): > 10 µM | TGI (SW-620 colon): > 10 µM | TGI (RPMI-8226 leukemia): > 10 µM | TGI (CCRF-CEM leukemia): > 10 µM | TGI (BT-549 breast): > 10 µM | TGI (A549 NSCLC): > 10 µM | TGI (KM12 colon): > 10 µM

Cc1c2ccccc2nc2[nH]c3ccncc3c12
TGI (SK-MEL-5 melanoma): 95 µM | TGI (NCI-H23 lung): 74.3 µM | TGI (EKVX NSCLC): 98.5 µM | TGI (UACC-62 melanoma): 74.8 µM | TGI (SW-620 colon): > 100 µM | TGI (RPMI-8226 leukemia): 77.7 µM | TGI (CCRF-CEM leukemia): 10.9 µM | TGI (BT-549 breast): > 100 µM | TGI (A549 NSCLC): > 100 µM | TGI (KM12 colon): > 100 µM

N=c1nc(N)nc(N)n1-c1ccc(S(N)(=O)=O)cc1
TGI (SK-MEL-5 melanoma): > 100 µM | TGI (NCI-H23 lung): > 100 µM | TGI (EKVX NSCLC): > 100 µM | TGI (UACC-62 melanoma): > 100 µM | TGI (SW-620 colon): > 100 µM | TGI (CCRF-CEM leukemia): > 100 µM | TGI (BT-549 breast): > 100 µM | TGI (A549 NSCLC): > 100 µM | TGI (KM12 colon): > 100 µM

CCOC(=O)C1=C(C)N2CCCOC2(C)C(C(=O)OC)C1c1cccc([N+](=O)[O-])c1 (configuration not stated)
TGI (SK-MEL-5 melanoma): > 100 µM | TGI (NCI-H23 lung): > 100 µM | TGI (EKVX NSCLC): > 100 µM | TGI (UACC-62 melanoma): > 100 µM | TGI (SW-620 colon): > 100 µM | TGI (RPMI-8226 leukemia): > 100 µM | TGI (CCRF-CEM leukemia): > 100 µM | TGI (A549 NSCLC): > 100 µM | TGI (KM12 colon): > 100 µM

CN(C)CCNc1ccc2nnn3c4ccc(Cl)cc4c(=O)c1c23
TGI (SK-MEL-5 melanoma): 10.6 µM | TGI (NCI-H23 lung): 18.7 µM | TGI (EKVX NSCLC): 22.2 µM | TGI (UACC-62 melanoma): 18.6 µM | TGI (SW-620 colon): 18 µM | TGI (RPMI-8226 leukemia): 25.4 µM | TGI (CCRF-CEM leukemia): > 52.8 µM | TGI (BT-549 breast): 34.8 µM | TGI (A549 NSCLC): 14.1 µM | TGI (KM12 colon): 20.8 µM

COc1cc2c(cc1O)CCN[C@@]21CS[C@H]2c3c(OC(C)=O)c(C)c4c(c3C(COC1=O)N1C2C2c3c(cc(C)c(OC)c3O)CC([C@@H]1O)N2C)OCO4 (some centres not stated)
TGI (CCRF-CEM leukemia): < 1e-06 µM | TGI (BT-549 breast): 0.00987 µM | GI50 (KM12 colon): 0.00337 µM | TGI (KM12 colon): 0.0161 µM
